Entries after “also recorded” stand apart in the source; their conditions may differ. Marks after values point to notes of the source that are not given here.
How the values were obtained:
Rectal temperature = assay type: in vivo; conditions: i.p. 50, 100, 250 and 500 mg/kg, 30-180 min, probit analysis
Description: (§1) None of the compounds affected rectal temperature at the dose of 500 mg/kg (Table 1).
(§2) The compounds were administered in i.p. doses of 50, 100, 250 and 500 mg/kg. The effect of the substances in different tests was evaluated 30, 60, 120 and 180 min after the administration of the compounds. ED50 value was calculated by, performing probit analysis.

[1] = Cylinder test, muscle strength and coordination; assay type: in vivo; conditions: for effect on muscle strength and coordination: cylinder, traction and rotating rod tests, up to 500 mg/kg
Description: as §1, §2

[2] = Open field test, locomotor activity; assay type: in vivo; conditions: for time for which increase in locomotor activity was retained: single i.p., 50 mg/kg stated for R-phenotropil; for locomotor effect compared with R-phenotropil: respective doses, S-enantiomer at 50 mg/kg
Description: Locomotor activity was tested in an open field test 30, 60, 120, 180 and 240 min after a single i.p. injection of the racemic phenotropil and R- and S-enantiomers (FIG. 1A,B,C,D). […] R-phenotropil in 5, 10 and 50 mg/kg doses induced a statistically significant increase in locomotor activity in comparison with the control animals [F(3.31)=10.37, p<0.0001] (FIG. 1A,C). Furthermore, R-phenotropil in the dose of 50 mg/kg retained a statistically significant increase in locomotor activity for up to 240 min [F(9.80)=24.03, p<0.0001] (FIG. 1B,D).

[3] = Forced swimming test (duration of immobility), antidepressive effect; assay type: in vivo; conditions: for doses significantly reducing duration of immobility vs control group: 30 min after i.p. injection, doses tested 10, 50 and 100 mg/kg
Description: The antidepressive effect of the racemic, R- and S-phenotropil was tested in a forced swimming test (by determining the duration of immobility) 30 min after the i.p. injection of the compounds in doses 10, 50 and 100 mg/kg (FIG. 2).

[4] = Rotating rod test, muscle strength and coordination; assay type: in vivo; conditions: i.p. 50, 100, 250 and 500 mg/kg, 30-180 min, probit analysis
Description: as §1, §2

[5] = Traction test, muscle strength and coordination; assay type: in vivo; conditions: i.p. 50, 100, 250 and 500 mg/kg, 30-180 min, probit analysis
Description: as §1, §2

mice = assay: Passive avoidance test, latent period of the remembering process; assay type: in vivo; conditions: for effect on latent period / passive avoidance: dose not given; for increase of latent period in comparison with control group: mice
Description: The influence of racemic, R- and S-phenotropil on memory processes was determined by means of a passive avoidance test (PCR), by registering the latent period of the remembering process.

[6] = nootropic activity, literature (Malykh, Sadaie 2010); cited from earlier work
Zucker fa/fa rats = assay: Body mass gain in Zucker fa/fa rats, 12 weeks oral administration; assay type: in vivo
Description: The influence of an S-phenotropil containing composition on the body mass. Zucker fa/fa (HsdOla:Zucker-Lepfre; Harlan Laboratories) and Zucker lean line rats (HsdOla:Zucker-Lean; Harlan Laboratories) with the body mass of 100-170 g were used during the experiment. At the beginning of the experiment the animals were 6 weeks old. Standard conditions for keeping the experimental animals were ensured (air temperature 21° C.-23° C., relative air humidity 65%±10%, 12 hour light/darkness cycle). Standardised feed (R70) by the company LABFOR (Lactamin AB, Sweden) was used to feed the animals, drinking water was accessible without limitations.
S-phenotropil containing pharmaceutical composition in water or water was orally administered to the mature male rats included into the experimental group once daily in the morning: To the Zucker lean group (n=10), water p.o., to the Zucker fa/fa control group (n=10), water p.o. or to the Zucker fa/fa group S-phenotropil containing composition 50 mg/kg (n=5), p.o. The resulting values were expressed as mean values±standard error of the mean (S.E.M.) T-test was used to check the validity of the results. The results were considered valid, if the p value was less than 0.05. […] Since the increase in mass for ZuckerLean control rats is primarily connected with normal increase in muscle mass, as the animals grow, the effect of S-phenotropil in terms of the increase of ZuckerFF fat mass is 39% (FIG. 6).

[7] = i.p. 50, 100, 250 and 500 mg/kg, 30-180 min, probit analysis
[8] = Zucker fa/fa rats, 50 mg/kg p.o. once daily, mean ± S.E.M.

Row | SMILES | ED50 Rectal temperature (Rectal temperature) [mg/kg] | ED50 Cylinder [1, 7] [mg/kg] | time for which increase in locomotor activity was retained [2] | ED50 Rotating rod [4] [mg/kg] | ED50 Traction [5] [mg/kg] | effect on latent period in comparison with control group (mice; 1 mg/kg) | effect on latent period / passive avoidance (mice) | effect on muscle strength and coordination [1] | locomotor effect compared with R-phenotropil [2] | doses significantly reducing duration of immobility vs control group [3] [mg/kg] | further results
1 | NC(=O)CN1C[C@@H](c2ccccc2)CC1=O [R-phenotropil] | >500 | 258 ± 25 | up to 240 min | 320 ± 60 | 250 ± 40 | significantly increased the latent period | considerably affects memory |  |  |  | reduction of duration of immobility in comparison with control group ([3]; 100 mg/kg i.p., 30 min): 8 times; antidepressive effect compared with the other tested compounds / control ([3]; i.p., 30 min after injection): significantly higher in comparison with racemic and S-phenotropil; increase of latent period in comparison with control group (mice; 1 mg/kg): 195%; increase of latent period in comparison with control group (mice; 10 mg/kg): 185%
2 | NC(=O)CN1CC(c2ccccc2)CC1=O (racemic) [Phenotropil racemate] | >500 | >500 | up to 180 min | >500 | >500 | significantly increased the latent period |  | did not affect muscle strength and coordination | less active than R-phenotropil | 100 | activity relative to piracetam [6]: 30-60 times
3 | NC(=O)CN1C[C@H](c2ccccc2)CC1=O [S-phenotropil, (S)-2-(2-oxo-4-phenylpyrrolidin-1-yl)acetamide] |  |  |  |  |  |  | does not have any effect in a passive avoidance test; also recorded: did not affect the latent period | did not affect muscle strength and coordination | statistically significantly weaker than the effect of R-enantiomer | 100 | ED50 (Rectal temperature; in vivo, intraperitoneal): > 500 mg/kg; ED50 ([1]; in vivo, intraperitoneal, i.p. 50, 100, 250 and 500 mg/kg, 30-180 min, probit analysis): > 500 mg/kg; dose for statistically significant effect on locomotor activity relative to R-phenotropil [2]: 10 times; doses inducing statistically significant increase in locomotor activity vs control animals ([2]; single i.p. injection): 50 mg/kg; ED50 ([4]; in vivo, intraperitoneal): > 500 mg/kg; ED50 ([5]; in vivo, intraperitoneal): > 500 mg/kg; effect on weight increase (Zucker fa/fa rats; Zucker FF rats, 12 weeks, 50 mg/kg p.o.): statistically significantly reduced the weight increase; Increase in fat mass in Week 12 (Zucker fa/fa rats; [8]): 106 ± 7 g; Weight increase in Week 12 (Zucker fa/fa rats; [8]): 2645 ± 30*^, # AUC units; reduction of total weight gain (Zucker fa/fa rats; Zucker fa/fa rats, 50 mg/kg p.o., 12 weeks): 22%; effect in terms of the increase of ZuckerFF fat mass (Zucker fa/fa rats; Zucker fa/fa rats, 50 mg/kg p.o., 12 weeks, relative to Zucker lean growth): 39%
